Data: paper PMC5299686, “Betanodavirus-like particles enter host cells via clathrin-mediated endocytosis in a cholesterol-, pH- and cytoskeleton-dependent manner” (Veterinary Research, 2017)
Like-named read-outs stand apart in the source and are kept apart here.

Columns and labels:
[1] = tested on: RBS entry into SB cells; assay: VLP (RBS) entry assay with inhibitor or siRNA perturbation, ELISA quantitation; format: cell-based, Lates calcarifer; settings: for change of RBS entry efficiency compared with untreated cells: 2 h entry
Protocol: (§1) Virus-like particles entry (invasion) assays were performed using SB or other indicated cells as described. In brief, the cells were seeded on coverslips in 12-well plates or cultured in 96-well plates for 18 or 24 h to achieve 70% confluence, pretreated with the indicated inhibitors at the indicated temperature (26 °C for fish cells, 28 °C for insect cells, and 37 °C for mammalian cells) and concentration (Table 1) for 1 h, and then incubated with RBS or CGV in the presence of the inhibitors for 1 h on ice. After that, the cells were washed three times with pre-cooling PBS, shifted to 28 °C to start entry, and visualized directly by fluorescent microscopy for CGV entry kinetics, or fixed for IFA followed by fluorescent microscopy, or collected for ELISA at the indicated times. In the untreated (positive) or mock-infected (negative) controls, the cells were subjected to no inhibitor treatment or no VLP incubation respectively. The entry assay of each inhibitor was repeated at least three times.
Six wells of cells in a 96-well plate treated with the same condition in entry assays were washed thoroughly with PBS, lysed with 20 μL of lysis buffer in each well and combined as one sample. Endogenous β-actin was used as an internal normalization control for ELISA. Three-hundred microliters of 30-fold diluted lysate for VLP detection or 100-fold diluted lysate for β-actin detection were coated equally in three wells of a 96-well microtiter plate at 4 °C overnight, respectively. The plate was conducted to room temperature and washed three times with 200 μL PBS. After blocking with 5% bovine serum albumin (BSA) in PBS for 1 h at room temperature and washing three times (all washes below indicate triplicate washings) with 200 μL PBS containing 0.05% Tween20 (PBST), the plate was incubated with in-house produced mouse anti-VLP antiserum at a dilution of 1:2000 in PBS for 1 h. The plate was washed and peroxidase-conjugated goat anti-mouse IgG (Sigma) at a dilution of 1:3000 in PBS was added and incubated for 1 h. Following thorough washings (five times), 100 μL of OPD substrate (Sigma) was added and the color development was conducted at room temperature. The reaction was stopped by the addition of 4 M sulfuric acid and the absorbance at 492 nm was determined. The OD492 of each sample including treated and untreated cells was normalized with the corresponding OD492 of β-actin to obtain the relative VLP quantity. The entry efficiency was generated as the percentage of treated cells with incorporated VLP relative to that for untreated cells. The VLP entry efficiency of untreated cells was arbitrarily set as 100%. The data shown are the mean ± SD of the results from three independent experiments. Statistical differences of VLP content from different groups were assessed by paired Student’s t tests. Numerical results are presented as mean ± SD with 95% confidence intervals and p < 0.05 was considered statistically significant (*, p < 0.05; **, p < 0.01).

[2] = tested on: SB cells; assay: Cytotoxicity assay (CellTiter 96 AQueous One Solution Cell Proliferation Assay)
Protocol: To optimize the working concentration of the inhibitors, the cytotoxicity of the drugs to SB cells were evaluated. SB cells grown in 96-well plates were treated with the inhibitors at different concentrations for 4 h. Then cell viability was assayed using CellTiter 96® AQueous One Solution Cell Proliferation Assay (Promega, USA) according to the manufacturer’s instructions.

[3] = tested on: RBS entry into SB cells; assay: VLP (RBS) entry assay, IFA and fluorescent microscopy; format: cell-based, Lates calcarifer; settings: at the working concentrations (CPZ 1 to 70 μM; dynasore 1, 10, 80 μM; siRNA 48 h post-transfection)
Protocol: (§2) Virus-like particles entry (invasion) assays were performed using SB or other indicated cells as described. In brief, the cells were seeded on coverslips in 12-well plates or cultured in 96-well plates for 18 or 24 h to achieve 70% confluence, pretreated with the indicated inhibitors at the indicated temperature (26 °C for fish cells, 28 °C for insect cells, and 37 °C for mammalian cells) and concentration (Table 1) for 1 h, and then incubated with RBS or CGV in the presence of the inhibitors for 1 h on ice. […]
(§3) Cells were washed twice with PBS, fixed with 4% paraformaldehyde for 15 min, permeated with 0.2% Triton X-100 for 10 min, and then blocked with 5% BSA for 1 h. […] For identification of entry and trafficking of RBS in cells, images were acquired using a laser scanning confocal fluorescence microscope (TCS-SP5, Leica Microsystems Wetzlar GmbH Inc., Germany). Images were acquired randomly from 5 different fields of view per coverslip to get more than 20 cells and to allow observing the signals of targets and nuclei fluorescence by Leica Application Suite (2.6.0 build 7266). […] The results are expressed as the mean ± standard deviation (SD).

[4] = tested on: CGV entry into SB cells; assay: CGV entry assay, ELISA quantitation; format: cell-based, Lates calcarifer
Protocol: as §1, with “In the untreated (positive) or mock-infected (negative) controls, the cells were subjected to no inhibitor treatment or no VLP incubation respectively. The entry assay of each inhibitor was repeated at least three times.” left out
Six wells of cells in a 96-well plate treated with the same condition in entry assays were washed thoroughly with PBS, lysed with 20 μL of lysis buffer in each well and combined as one sample. […] The reaction was stopped by the addition of 4 M sulfuric acid and the absorbance at 492 nm was determined. The OD492 of each sample including treated and untreated cells was normalized with the corresponding OD492 of β-actin to obtain the relative VLP quantity. […] Statistical differences of VLP content from different groups were assessed by paired Student’s t tests. […]

[5] = tested on: RBS entry into SSN-1 cells; assay: VLP entry assay and IFA on SSN-1 cells; format: cell-based, Channa striatus; settings: SSN-1 cells pretreated with CPZ for 1 h
Protocol: as §2, §3

[6] = tested on: RBS entry into GB cells; assay: VLP entry assay and IFA on GB cells; format: cell-based, Epinephelus coioides; settings: GB cells pretreated with CPZ for 1 h
Protocol: as §2, §3

[7] = Lates calcarifer, read-out: RBS entry blocked (inhibited)
[8] = 40 μM inhibitor alone, SB cells, ELISA
[9] = 1 mM inhibitor, SB cells, ELISA

`COC(=O)Nc1nc2ccc(C(=O)c3cccs3)cc2[nH]1` [nocodazole] showed an inhibition at 1 µM [1, 7] of 59.4%, an inhibition at 5 µM [1, 7] of 74% and an inhibition at 50 µM [1, 7] of 81.3%. The “MC, max concentration that can be used without cytotoxicity” value ([2]; SB cells, 4 h treatment) was 160 µM.

With `O=c1c(-c2ccc(O)cc2)coc2cc(O)cc(O)c12` [genistein] the “entry quantity of VLP compared with mock-treated control” value ([1]; 100 μM inhibitor, SB cells, ELISA) was 88% and the “MC, max concentration that can be used without cytotoxicity” value ([2]; SB cells, 4 h treatment) was 100 µM.

With `O=S(=O)(c1cccc2c(I)cccc12)N1CCCNCC1` [ML-7] the “change of RBS entry efficiency compared with untreated cells” value (“change of RBS entry efficiency” below) [1, 8] was “no statistically significant change” and the “MC, max concentration that can be used without cytotoxicity” value ([2]; SB cells, 4 h treatment) was 40 µM.

With `O=C(N/N=C/c1ccc(O)c(O)c1)c1cc2ccccc2cc1O` [dynasore] the “VLP entry efficiency (untreated cells = 100%)” value ([1]; 1 μM inhibitor, SB cells, ELISA) was 71.4%, the “VLP entry efficiency (untreated cells = 100%)” value ([1]; 10 μM inhibitor, SB cells, ELISA) was 48.5% and the “VLP entry efficiency (untreated cells = 100%)” value ([1]; 80 μM inhibitor, SB cells, ELISA) was 40%. The “fluorescent signal of RBS in cells (IFA) compared with untreated cells” value [3] was “significantly reduced” and the “MC, max concentration that can be used without cytotoxicity” value ([2]; SB cells, 4 h treatment) was 800 µM.

`Oc1ccc2ccccc2c1SSc1c(O)ccc2ccccc12` [IPA-3] was tested, and the “change of RBS entry efficiency” value [1, 8] was “no statistically significant change” and the “MC, max concentration that can be used without cytotoxicity” value ([2]; SB cells, 4 h treatment) was 40 µM.

With `CC(C)CCC[C@@H](C)[C@H]1CC[C@H]2[C@@H]3CC=C4C[C@@H](O)CC[C@]4(C)[C@H]3CC[C@]12C` [cholesterol] the “effect of cholesterol supplement on CGV entry” value ([4]; SB cells not treated with MβCD) was “did not enhance the entry of CGV” and the “CGV entry efficiency after cholesterol replenishment compared with mock-treated cells” value ([4]; SB cells pretreated with 5 mM MβCD, then exogenous cholesterol 0.8 μg/μL for 1 h) was 57%.

With `CCN(CC)CCCC(C)Nc1nc(C)cc(Nc2ccc3nc(C)cc(N)c3c2)n1` (centres unmarked) [NSC23766] the “change of RBS entry efficiency” value [1, 8] was “no statistically significant change” and the “MC, max concentration that can be used without cytotoxicity” value ([2]; SB cells, 4 h treatment) was 40 µM.

For `Cl.N` [NH4Cl, ammonia chloride], the “VLP entry efficiency (untreated cells = 100%)” value ([1]; 50 mM inhibitor, SB cells, ELISA) was 25% and the “MC, max concentration that can be used without cytotoxicity” value [2] was 50 000 μM.

`CCN(CC)CCCC(C)Nc1ccnc2cc(Cl)ccc12` (centres unmarked) [chloroquine] was tested, and the “RBS entry blocked (inhibited)” value [1, 9] was “totally block”, the inhibition at 10 µM [1, 7] was greater than 70% and the “MC, max concentration that can be used without cytotoxicity” value ([2]; SB cells, 4 h treatment) was 1000 µM.

With methyl-β-cyclodextrin [MβCD] the “RBS entry blocked (inhibited)” value ([1]; 0.5 mM inhibitor, SB cells, ELISA) was 63.6%, the “RBS entry blocked (inhibited)” value [1, 9] was 59.5% and the “RBS entry blocked (inhibited)” value ([1]; 2 mM inhibitor, SB cells, ELISA) was 74.4%.

With `CN(C)CCCN1c2ccccc2Sc2ccc(Cl)cc21` [CPZ, chlorpromazine] the “VLP entry efficiency in treated compared with untreated samples (IFA)” value [5] was “dramatically decreased”, the “VLP entry efficiency in treated compared with untreated samples (IFA)” value [6] was “dramatically decreased” and the “change of RBS entry efficiency” value ([1]; 7 μM inhibitor alone, SB cells, ELISA) was “dramatically reduced”. The “VLP entry efficiency (untreated cells = 100%)” value ([1]; 70 μM inhibitor, SB cells, ELISA) was 5%, the inhibition at 1 µM [1, 7] was 70% and the inhibition at 7 µM [1, 7] was 80%. The inhibition at 70 µM [1, 7] was 95%, the “fluorescent signal of RBS in cells (IFA) compared with untreated cells” value [3] was “significantly reduced” and the “MC, max concentration that can be used without cytotoxicity” value ([2]; SB cells, 4 h treatment) was 700 µM.

Work on `COC[C@H]1OC(=O)c2coc3c2[C@@]1(C)C1=C(C3=O)[C@@H]2CCC(=O)[C@@]2(C)C[C@H]1OC(C)=O` [wortmannin] yielded an inhibition at 1 µM [1, 7] of -1.4%, an inhibition at 10 µM [1, 7] of 0.82% and an inhibition at 50 µM [1, 7] of 23%. For the same compound, the “MC, max concentration that can be used without cytotoxicity” value ([2]; SB cells, 4 h treatment) was 50 µM.

With `CC(=O)c1c(O)c(C)c(O)c(Cc2c(O)c3c(c(C(=O)/C=C/c4ccccc4)c2O)OC(C)(C)C=C3)c1O` [rottlerin] the “change of RBS entry efficiency” value [1, 8] was “no statistically significant change” and the “MC, max concentration that can be used without cytotoxicity” value ([2]; SB cells, 4 h treatment) was 40 µM.

`C=C1[C@@H](C)[C@H]2[C@H](Cc3ccccc3)NC(=O)[C@]23[C@H](OC(C)=O)/C=C/[C@@](C)(O)C(=O)[C@@H](C)C/C=C/[C@H]3[C@@H]1O` [CytD, cytochalasin D] showed an inhibition at 1 µM [1, 7] of 83.2%, an inhibition at 10 µM [1, 7] of 96% and an inhibition at 77.8 µM [1, 7] of 96.5%. For the same compound, the “MC, max concentration that can be used without cytotoxicity” value ([2]; SB cells, 4 h treatment) was 77.8 µM.

For `CN(C)C[C@H](O)Cn1c2ccc(Br)cc2c2cc(Br)ccc21` (racemic) [wiskostatin], the inhibition at 1 µM [1, 7] was 77.9%, the inhibition at 10 µM [1, 7] was 84.6% and the inhibition at 50 µM [1, 7] was 94.2%. The “MC, max concentration that can be used without cytotoxicity” value ([2]; SB cells, 4 h treatment) was 50 µM.
